Reference: PMC7297817, “Pharmacological Characterization of a Betaine/GABA Transporter 1 (BGT1) Inhibitor Displaying an Unusual Biphasic Inhibition Profile and Anti-seizure Effects” (Neurochemical Research, 2020)
Entries after “also recorded” stand apart in the source; their conditions may differ. Like-named read-outs stand apart in the source and are kept apart here. Values belong to the compound of their own block, whether it stands above or below them.

Key:
hBGT1 = target: T1, hBGT1 (Homo sapiens, UniProt P48065); assay: [3H]GABA uptake at hBGT1 transiently expressed in tsA201 cells; type: cell-based; conditions: for inhibition profile (mono-/biphasic) / IC50: 30 nM [3H]GABA, 3 min; for inhibition profile (mono-/biphasic): F test; for Frac: proportion of maximal response due to the more potent phase; for preferred curve fitting: in the presence of 10 μM ATP
T1 construct: expressed in transfected cells; host or cells: tsA201 (transient)
T1 sequence (P48065 1-614): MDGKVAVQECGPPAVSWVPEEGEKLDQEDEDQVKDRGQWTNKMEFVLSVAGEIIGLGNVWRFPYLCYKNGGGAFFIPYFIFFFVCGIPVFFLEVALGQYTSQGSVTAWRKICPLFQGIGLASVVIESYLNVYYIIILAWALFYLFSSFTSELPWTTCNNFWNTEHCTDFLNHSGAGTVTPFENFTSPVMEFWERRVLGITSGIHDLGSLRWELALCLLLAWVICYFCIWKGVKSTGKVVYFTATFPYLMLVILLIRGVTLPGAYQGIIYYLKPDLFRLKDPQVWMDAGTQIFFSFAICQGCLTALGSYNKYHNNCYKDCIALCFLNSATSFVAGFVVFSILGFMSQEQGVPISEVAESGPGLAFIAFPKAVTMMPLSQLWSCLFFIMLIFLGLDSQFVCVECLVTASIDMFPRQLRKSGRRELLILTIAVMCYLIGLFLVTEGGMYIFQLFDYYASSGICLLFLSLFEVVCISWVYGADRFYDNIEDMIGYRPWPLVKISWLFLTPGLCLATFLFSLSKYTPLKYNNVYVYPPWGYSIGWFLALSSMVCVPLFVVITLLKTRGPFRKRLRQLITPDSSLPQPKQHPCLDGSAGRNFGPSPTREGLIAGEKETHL
Protocol: The tsA201 cell line was used for transient expression while the MDCK II cell line express BGT1 endogenously. Both cell lines were cultured as described. tsA201 cells were transfected with DNA constructs (8 μg per 10 cm dish if not otherwise mentioned) using 40 μL PolyFect transfection reagent according to the manufacturer’s protocol (Qiagen, Venlo, Netherlands). The DNA constructs encoding hBGT1, hGAT1-3 [36], the mutated constructs hBGT1 Q299 and hGAT3 L314Q described previously, and hBGT Y453A were synthesized and sequence validated by Genscript (NJ, USA).
The [^3H]GABA competition uptake assay was performed as previously described. […] Studies related to the inhibition curves with GABA and BPDBA at hBGT1 were obtained both with and without the presence of 10 μM ATP during the [^3H]GABA uptake assay.
All compounds, except BAPTA/AM, were also present at the same concentration during the course of the actual [^3H]GABA uptake assay.
The [^3H]GABA uptake data was normalized to the percentage of total uptake in the individual experiments in the presence of the lowest compound concentration or no compound present. Data presented is the pooled data of at least three independent experiments with three technical replicates. Concentration–response curves (CRCs) were fitted with GraphPad Prism (version 8.2.1, Yosemite, GraphPad Software, San Diego, CA, USA) by non-linear regression to the sigmoidal concentration response model: Y=Bottom+(Top-Bottom)/1+10^LogIC50-X∗nH where Top is the Top plateau, Bottom is the Bottom plateau, X is the logarithm of the concentration of the compound, LogIC50 is the concentration giving a response halfway between Top and Bottom,and nH is the Hill slope.
The best fit for CRCs obtained with the [^3H]GABA uptake assay was identified by the extra-sum-of-squares F test (for convenience referred to as F test).

[1] = test system: tsA201 cells transiently expressing hBGT1; assay: Fluo-4 Ca2+-assay in tsA201 cells transiently expressing hBGT1; type: cell-based, human; conditions: within the 3 min timeframe; blocked by BAPTA/AM
Protocol: Emission was recorded for 20 s. before adding the compounds (at 4 × concentrations) to the HBSS-HEPES buffer to determine the baseline. […] Data presented is the pooled data of at least three independent experiments with three technical replicates. Changes in fluorescence units (ΔFU) were determined as the maximum fluorescent signal within the 190 s minus the average of the baseline.

[2] = test system: 74 different neuroreceptors and ion channels; conditions: adrenergic, GABAergic and dopaminergic receptors included; cited from earlier work
[3] = biphasic fit, tsA201, 8 μg cDNA, read-out: IC50, low affinity component (high IC50)
[4] = monophasic fit (biphasic n.s.), read-out: IC50
[5] = read-out: IC50, low affinity component (high IC50), biphasic fit, tsA201, 8 μg cDNA

inhibition profile (mono-/biphasic) (hBGT1): biphasic CRC
nH1 (hBGT1; Hill slope of first phase, 8 μg cDNA): –0.79
nH2 (hBGT1; Hill slope of second phase, 8 μg cDNA): –2.35
IC50 (hBGT1; [3]): 190 µM
IC50 (hBGT1; biphasic fit, tsA201, 8 μg cDNA, read-out: pIC50 ± S.E.M., high affinity component (converted)): 2.45 µM
Frac (hBGT1; 8 μg cDNA): 0.30
Compound: Cc1ccsc1C(CCCN(C)[C@@H]1CCCc2onc(O)c21)c1sccc1C [(R)-EF1502, (R)-4-((4,4-bis(3-methylthiophen-2-yl)butyl)(methyl)amino)-4,5,6,7-tetrahydrobenzo[d]isoxazol-3-ol, reference compound]

preferred curve fitting (hBGT1): monophasic fit
IC50 (hBGT1; [4]): 14.8 µM
IC50 (hBGT1; monophasic fit (biphasic n.s.), read-out: pIC50 ± S.E.M. (converted)): 15.1 µM
Compound: O=C(NC1CCN(Cc2ccccc2)CC1)c1ccc(Cl)cc1Cl [BPDBA, N-(1-benzyl-4-piperidinyl)-2,4-dichlorobenzamide, reference compound]
inhibition profile (mono-/biphasic) (hBGT1): monophasic; also recorded: did not inhibit hBGT1 in a biphasic manner

IC50 (hBGT1; biphasic fit, tsA201, 8 μg cDNA, read-out: IC50, high affinity component (low IC50)): 11.2 µM
IC50 (hBGT1; [3]): 819 µM
Frac (hBGT1; 8 μg cDNA): 0.26
Compound: CN(CCC=C1c2ccccc2CCc2ccccc21)[C@@H]1CCCC[C@@H]1C(=O)O [(1R,2S)-5c, (1S,2R)-2-((3-(10,11-dihydro-5H-dibenzo[a,d][7]annulen-5-ylidene)propyl)(methyl)amino)cyclohexane-1-carboxylic acid]

Compound: Nc1ncnc2c1ncn2[C@@H]1O[C@H](COP(=O)(O)OP(=O)(O)OP(=O)(O)O)[C@@H](O)[C@H]1O [ATP, adenosine 5′-triphosphate, reference compound]
intracellular Ca2+ increase [1]: induced a Ca^2+ increase
decrease of total [3H]GABA uptake (hBGT1; ATP present during uptake (10 μM per methods)): 9%

Compound: COc1ccccc1C1(O)CCN(CCCn2c3ccccc3c3ccccc32)CC1 [NNC 05-2090, 1-[3-(9H-Carbazol-9-yl)propyl]-4-(2-methoxyphenyl)-4-piperidinol, reference compound]
inhibition profile (mono-/biphasic) (hBGT1): did not inhibit hBGT1 in a biphasic manner
IC50 (hBGT1; [4]): 117 µM

Compound: Cc1ccsc1C(=CCCN(C)[C@@H]1CCCC[C@@H]1C(=O)O)c1sccc1C [(1S,2R)-5a, (1S,2R)-2-((4,4-bis(3-methylthiophen-2-yl)but-3-en-1-yl)(methyl)amino)cyclohexane-1-carboxylic acid]
IC50 (hBGT1; IC50, high affinity component (low IC50), biphasic fit, tsA201, 8 μg cDNA): 4.7 µM
Frac (hBGT1; 8 μg cDNA): 0.28
IC50 (hBGT1; [5]): 370 µM

Compound: Cc1ccsc1C(=CCCN(C)[C@@H]1CCCC[C@H]1C(=O)O)c1sccc1C [(1R,2R)-4a, (1R,2R)-2-((4,4-bis(3-methylthiophen-2-yl)but-3-en-1-yl)(methyl)amino)cyclohexane-1-carboxylic acid]
IC50 (hBGT1; pIC50 ± S.E.M., high affinity component, biphasic fit, tsA201, 8 μg cDNA): 3.39 µM
Frac (hBGT1; 8 μg cDNA): 0.19
IC50 (hBGT1; [5]): 566 µM

Compound: N-[4,4-bis(3-methyl-2-thienyl)-3-butenyl]-3-hydroxy-4-(methylamino)-4,5,6,7-tetrahydrobenzo[d]isoxazol-3-ol [EF1502]
activity at a broad range of neurotransmitter systems [2]: completely devoid of any activity

inhibition profile (mono-/biphasic) (hBGT1): monophasic
preferred curve fitting (hBGT1): monophasic fit
Compound: NCCCC(=O)O [GABA, γ-Aminobutyric acid]
